Publication doi:10.1101/2023.04.09.536153v2, “Reinstating targeted protein degradation with DCAF1 PROTACs in CRBN PROTAC resistant settings” (biorxiv, 2023)
Where two headings read alike, the source gives them in different places.

Experiments:
[1] = target: T1, DCAF1(1073-1399)_E1398S (WDR domain, Avi/His-tagged) (Homo sapiens, UniProt Q9Y4B6, E1398S); assay: fluorescence polarization; type: binding
T1 construct: WDR (WD40) domain 1073-1399 with E1398S; Avi and His tags (N-terminal Avi, C-terminal His for SPR; C-terminal Avi-His for TR-FRET), biotinylated by BirA; Sf9 cells
T1 sequence (Q9Y4B6 1073-1399 E1398S): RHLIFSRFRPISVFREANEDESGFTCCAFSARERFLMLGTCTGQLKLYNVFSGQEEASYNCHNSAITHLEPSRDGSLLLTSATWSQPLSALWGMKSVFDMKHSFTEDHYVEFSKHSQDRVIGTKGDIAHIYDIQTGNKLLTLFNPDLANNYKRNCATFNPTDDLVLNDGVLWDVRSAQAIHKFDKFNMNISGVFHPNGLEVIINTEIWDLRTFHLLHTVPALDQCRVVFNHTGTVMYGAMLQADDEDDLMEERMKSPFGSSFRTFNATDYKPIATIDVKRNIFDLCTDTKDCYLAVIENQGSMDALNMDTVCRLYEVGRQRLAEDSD

[2] = target: T1, DCAF1(1073-1399)_E1398S (WDR domain, Avi/His-tagged); assay: TR-FRET competition with bodipy ligand; type: binding; details: 30 mM phosphate pH 7.4, 140 mM NaCl, 22 °C, no BTK added
[3] = target: T2, BTK kinase domain (389-659) (Homo sapiens, UniProt Q06187); assay: kinase inhibition, Caliper mobility shift; type: biochemical; details: 0.047 mM ATP, 0.002 mM peptide, pH 7.5, 32 °C, 60 min
T2 construct: kinase domain 389-659; His-PreScission (with or without Avi) construct, Sf9 cells
T2 sequence (Q06187 389-659): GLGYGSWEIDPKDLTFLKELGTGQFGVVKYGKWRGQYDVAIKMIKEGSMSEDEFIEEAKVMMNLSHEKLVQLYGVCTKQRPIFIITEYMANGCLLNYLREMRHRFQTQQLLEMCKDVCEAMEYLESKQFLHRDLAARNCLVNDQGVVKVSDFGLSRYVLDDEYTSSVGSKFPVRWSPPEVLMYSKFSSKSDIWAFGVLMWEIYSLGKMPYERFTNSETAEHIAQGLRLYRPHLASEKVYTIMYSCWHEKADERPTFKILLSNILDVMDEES
Description: kinase inhibition, Caliper mobility shift on BTK kinase domain (389-659) | weaker affinity for BTK of the DBt-6 and DBt-8 was additionally corroborated by enzymatic inhibition

BTK-NanoLuc = target: T3, BTK-NanoLuc (Homo sapiens, UniProt Q06187); assay: NanoBRET tracer displacement; type: cell-based; details: digitonin-permeabilized cells, 0.5 µM Tracer-05, 2 h; ATP site
T3 construct: full-length BTK fused to NanoLuc (pLenti6 BTK-Nanoluc), transiently expressed in HEK293-A cells
T3 sequence (Q06187 2-659): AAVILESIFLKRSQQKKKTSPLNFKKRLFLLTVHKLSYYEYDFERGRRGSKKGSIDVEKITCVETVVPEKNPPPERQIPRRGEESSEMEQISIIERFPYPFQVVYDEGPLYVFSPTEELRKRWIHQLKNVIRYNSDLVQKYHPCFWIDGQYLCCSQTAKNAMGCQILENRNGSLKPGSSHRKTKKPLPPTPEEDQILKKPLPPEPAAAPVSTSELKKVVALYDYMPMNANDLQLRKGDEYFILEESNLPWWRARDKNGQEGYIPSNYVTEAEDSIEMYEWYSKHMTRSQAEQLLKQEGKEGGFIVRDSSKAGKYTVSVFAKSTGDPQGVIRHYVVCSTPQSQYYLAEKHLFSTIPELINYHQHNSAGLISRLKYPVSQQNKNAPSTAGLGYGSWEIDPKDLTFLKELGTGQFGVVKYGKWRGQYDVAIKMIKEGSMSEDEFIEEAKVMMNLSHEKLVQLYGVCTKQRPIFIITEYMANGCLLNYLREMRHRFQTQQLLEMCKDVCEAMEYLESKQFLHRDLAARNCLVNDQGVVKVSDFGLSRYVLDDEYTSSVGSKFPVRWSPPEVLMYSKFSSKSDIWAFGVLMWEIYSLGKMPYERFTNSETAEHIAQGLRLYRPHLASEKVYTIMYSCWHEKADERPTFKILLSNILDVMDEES

Cc1cc(C)n2c1C=C1C=CC(CCC(=O)N3CCN(c4ccc5c(NCCN)nc(C(C)(C)c6ccc(Cl)cc6)nc5c4)CC3)=[N+]1[B-]2(F)F [bodipy labelled ligand]
Kd [1]: 69 ± 6 nM

Cc1c(NC(=O)c2ccc(C(C)(C)O)cc2F)cc(F)cc1-c1ncnc2[nH]c(-c3ccc(CNCCOCCOCC(=O)N4CCCC(C(=O)N5CCN(c6ccc7c(NCCN)nc(C8(c9ccc(Cl)cc9)CCCCC8)nc7c6)CC5)C4)cc3)cc12 (centres unmarked) [DBt-6]
IC50 ([2]; read-out: IC50): 56 ± 37 nM | IC50 [3]: 510 nM | IC50 (BTK-NanoLuc): 2350 nM

CC(=O)N1CCN(c2ccc3c(NCCN)nc(C4(c5ccc(Cl)cc5)CCCCC4)nc3c2)CC1 [compound 13, VHF543]
IC50 [2]: IC50 determined by DCAF1 TR-FRET for selected DCAF1 binders
